One experiment relates to CHL cells. Nature of the experiment: Evaluation of cell toxicity (CCK8 cell viability). The format is cell-based. The protocol: CHL cells are seeded in a 96-well culture plate at a density of 4000 cells per well and incubated overnight at 37° C. in a 5% CO2 incubator. The culture medium is then replaced with 100 μL of medium containing different concentrations of ALC-0315, SM-102, and compounds prepared according to embodiments 1 and 2 of the present invention (specific concentrations are shown in FIG. 1), and cells are further incubated for 48 hours. Subsequently, 10 μL of CCK8 solution is added to each well and incubated for an additional 4 hours in the cell culture incubator. After the incubation, the absorbance at 450 nm is measured using a microplate reader, and cell viability is calculated. The IC50 values are calculated using GraphPad Prism software (version 8.01).

In experiment [1] the test system is RBD of the wild-type Delta strain S protein. Put plainly: Immunostimulatory efficacy of LNPs@Delta S-2P mRNA (serum antibody titers by ELISA). The format is in vivo, Balb/c mice. The conditions noted are these: for GMT: i.m. In general terms: An ELISA detects its analyte on a solid surface through an enzyme-linked reagent.
Experiment [2] relates to Fluc mRNA expression. Nature of the experiment: In vivo expression of LNPs@Fluc mRNA via intramuscular injection (bioluminescence, IVIS). Also on record: species or system BALB/c mouse. The conditions noted are these: 20 μg FLuc mRNA per mouse, 8 hours after administration, vs MC3, ALC-0315, SM-102. The protocol:
(§1) Furthermore, the ability of LNPs@mRNA prepared using compounds of the present invention to deliver mRNA in vivo was investigated. The inventors chose firefly luciferase as the reporter gene to label mRNA, referred to as Fluc mRNA. Following the method outlined in Example 3, LNPs@Fluc mRNA were prepared using different ionizable lipids (Compound 8, MC3, ALC-0315, or SM-102), referred to as LNP@Fluc mRNA formulation, MC3@Fluc mRNA, ALC-0315@Fluc mRNA, and SM-102@Fluc mRNA, respectively. These formulations were administered via intravenous injection (Step 2.1 of this example) and intramuscular injection (Step 2.2 of this example) to investigate the ability of LNPs@mRNA formulations prepared using compounds of the present invention to express mRNA in vivo and the distribution of expression.
The formulations LNPs@Fluc mRNA (Compound 8), the positive control formulation MC3@Fluc mRNA, ALC-0315@Fluc mRNA, and SM-102@Fluc mRNA, abbreviated as follows, were prepared as described above.
Each formulation's mRNA concentration was adjusted to 0.1 mg/mL using PBS solution, and the osmolarity of each formulation was adjusted to isotonic. […] The bioluminescence intensity of the entire body of the live mice was measured using an IVIS instrument with an exposure time of 60 s. Total flux of each organ was calculated after imaging. […]

The subject of experiment [3] is Fluc mRNA expression. Nature of the experiment: In vivo expression of LNPs@Fluc mRNA via intravenous injection (organ bioluminescence, IVIS). Also on record: species or system NIH mouse. As to conditions: intravenous (tail vein), 10 μg FLuc mRNA per mouse, 6 hours after administration; vs MC3, ALC-0315, SM-102. The protocol: as §1, with “expression. […]” for “expression.”
Each formulation's mRNA concentration was adjusted to 0.05 mg/mL using PBS solution, and the osmolarity of each formulation was adjusted to isotonic. […] The heart, liver, spleen, lungs, and kidneys were rapidly dissected, and the bioluminescence intensity of each excised organ was measured using an IVIS instrument with an exposure time of 60 s. Total flux of each organ was calculated after imaging. […]

[4] abbreviates: CHL cells, 48 hours incubation, CCK8, cell viability.
Setting [5] is: Table 3: 1 μg each time, two administrations 14 days apart, serum 28 days after the initial immunization.
Setting [6] is: Day 14, dose 0.1 μg, LNPs@Delta S-2P mRNA prepared with the lipid.
Where [7] appears, read: Day 14, dose 1 μg, LNPs@Delta S-2P mRNA prepared with the lipid.
Setting [8] is: Day 14, dose 5 μg, LNPs@Delta S-2P mRNA prepared with the lipid.
[9] abbreviates: Day 28, dose 0.1 μg, two administrations 14 days apart.
The mark [10] stands for this setting: Day 28, dose 1 μg, two administrations 14 days apart.
Setting [11] is: Day 28, dose 5 μg, two administrations 14 days apart.

In brackets after ≈: the same amount, converted by molar mass.

On to `CCCCCCCCC(CCCCCC)C(=O)OCCCCCCN(CCCCO)CCCCCCOC(=O)C(CCCCCC)CCCCCCCC` (stereo not drawn) [ALC-0315, reference compound], for which the IC50 with CHL cells (setting [4]) was found to be 29.9 µg/mL (≈ 39 µM).

In the experiment with CHL cells (CHL, 48 h), `CCCCCCCCC(CCCCCC)CNC(=O)NCCCCCCN(CCCO)CCCCCCNC(=O)NCC(CCCCCC)CCCCCCCC` (stereo not drawn) [Compound 7] registered an IC50 of 126 µg/mL (≈ 155 µM). Moreover, the GMT in experiment [1] (setting [5]) is 341,832.9.

Molecule `CCCCCCCCC(CCCCCC)CNC(=O)NCCCCCCN(CCCCO)CCCCCCNC(=O)NCC(CCCCCC)CCCCCCCC` (stereo not drawn) [Compound 8] gave an IC50 in the experiment on CHL cells (CHL, 48 h) of 166 µg/mL (≈ 202 µM). Further, the “Compound 8 GMT/SM-102 GMT” value in experiment [1] (Day 14, dose 0.1 μg) is 6.3; in experiment [1] (Day 14, dose 1 μg), 14.3; in experiment [1] (Day 14, dose 5 μg), 4.5; in experiment [1] (Day 28, dose 0.1 μg), 3.6; in experiment [1] (Day 28, dose 1 μg), 4.0; in experiment [1] (Day 28, dose 5 μg), 2.5. The GMT in experiment [1] (setting [6]) came out at 4525.5; in experiment [1] (setting [7]), 32254.0; in experiment [1] (setting [8]), 81274.9; in experiment [1] (setting [9]), 64508.0; in experiment [1] (setting [10]), 325099.7; in experiment [1] (setting [11]), 819200.0. In addition, the GMT in experiment [1] (setting [5]) was 325,099.7. Further, the “mRNA expression capability based on the total bioluminescence emitted” value in the experiment on Fluc mRNA expression [2] and in the experiment with Fluc mRNA expression [3] was “stronger mRNA expression capability compared to the three positive control materials” in each case.

For `CCCCCCCCC(CCCCCC)CNC(=O)NCCCCCCN(CCCCCO)CCCCCCNC(=O)NCC(CCCCCC)CCCCCCCC` (stereo not drawn) [Compound 9], in the experiment with CHL cells (CHL, 48 h), the IC50 came to 152 µg/mL (≈ 182 µM). In addition, in experiment [1] (setting [5]), the GMT was 452,334.1.

The molecule `CCCCCCCCC(CCCCCC)CNC(=O)NCCCCCCN(CCCCCCCO)CCCCCCNC(=O)NCC(CCCCCC)CCCCCCCC` (stereo not drawn) [Compound 10] returned an IC50 with CHL cells (CHL, 48 h) of 153 µg/mL (≈ 177 µM). In addition, the GMT in experiment [1] (setting [5]) is 299,812.1.

The molecule `CCCCCCCCC(CCCCCC)CNC(=O)NCCCCCN(CCCCO)CCCCCNC(=O)NCC(CCCCCC)CCCCCCCC` (stereo not drawn) [Compound 11] gave an IC50 with CHL cells (CHL, 48 h) of 137 µg/mL (≈ 173 µM). The GMT in experiment [1] (setting [5]) was 473,681.3.

On to `CCCCCCCCC(CCCCCC)CNC(=O)NCCCCCCCCCN(CCCCO)CCCCCCCCCNC(=O)NCC(CCCCCC)CCCCCCCC` (stereo not drawn) [Compound 12], for which half-maximal inhibition with CHL cells (CHL, 48 h) (IC50) was put at 195 µg/mL (≈ 215 µM). The GMT in experiment [1] (setting [5]) was 449,359.1.

Consider `CCCCCCCCC(CCCCCC)CNC(=O)NCCCCCCCCCCCCN(CCCCO)CCCCCCCCCCCCNC(=O)NCC(CCCCCC)CCCCCCCC` (stereo not drawn) [Compound 13], for which the IC50 in the experiment on CHL cells (CHL, 48 h) came out at 136 µg/mL (≈ 137 µM). Besides, the GMT in experiment [1] (setting [5]) is given as 210,944.0.

Molecule `CCCCCCCCC(CCCCCC)CNC(=O)NCCCCCCCCCCCCN(CCCCO)CCCCCCNC(=O)NCC(CCCCCC)CCCCCCCC` (stereo not drawn) [Compound 15] came in with an IC50 in the experiment on CHL cells (CHL, 48 h) of 147 µg/mL (≈ 162 µM). The GMT in experiment [1] (setting [5]) is reported as 400,363.5.

Take `CCCCCCC(CCCCCC)CNC(=O)NCCCCCCN(CCCCO)CCCCCCNC(=O)NCC(CCCCCC)CCCCCC` [Compound 16]: the IC50 with CHL cells (CHL, 48 h) was found to be 134 µg/mL (≈ 174 µM). In experiment [1] (setting [5]), the GMT is on record as 244,238.6.

In the experiment on CHL cells (CHL, 48 h), `CCCCCCCCC(CCCCCCCC)CNC(=O)NCCCCCCN(CCCCO)CCCCCCNC(=O)NCC(CCCCCCCC)CCCCCCCC` [Compound 17] gave an IC50 of 174 µg/mL (≈ 198 µM). For the same molecule, the GMT in experiment [1] (setting [5]) is 299,707.3.

With `CCCCCCCCCCCCNC(=O)NCCCCCCN(CCCCO)CCCCCCNC(=O)NCC(CCCCCC)CCCCCCCC` (stereo not drawn) [Compound 21], half-maximal inhibition in the experiment with CHL cells (CHL, 48 h) (IC50) required 119 µg/mL (≈ 156 µM). Also, the GMT in experiment [1] (setting [5]) is given as 208,203.5.

In turn, `CCCCCCCCCCCOC(=O)CCCCCN(CCO)CCCCCCCC(=O)OC(CCCCCCCC)CCCCCCCC` [SM-102, reference compound] gave an IC50 with CHL cells (setting [4]) of 55.9 µg/mL (≈ 78.7 µM). For the same molecule, the GMT is listed as 712.7 in experiment [1] (setting [6]); 2262.7 in experiment [1] (setting [7]); 18101.9 in experiment [1] (setting [8]); 18101.9 in experiment [1] (setting [9]); 81274.9 in experiment [1] (setting [10]); 325099.7 in experiment [1] (setting [11]). Also, the GMT in experiment [1] (setting [5]) is recorded as 81,274.9.

For orientation: IC50 means the concentration needed to halve the response being measured.

Source of the values: patent US20250134813A1, “COMPOUNDS, LIPSOMES, AND DRUG CARRIERS FOR DRUG DELIVERY” (priority 2023, published 2025).
